Test results as given in patent publication US20230285357A1, “COMPOSITIONS AND METHODS FOR […] CELLS” (The Regents of the University of California, priority 2020, published 2023).

Key:
osteoblasts = assay: RNA sequencing of SB216763-treated osteoblasts; assay type: cell-based, mouse
Source text: The differential expression profiles of SB216763-treated osteoblasts using RNA sequencing was examined. […] These overlapped with 1357 genes identified as low expression when osteoblast vs EC was compared, and a 307-gene cohort with decreased expression in both analyses was identified (FIG. 1, Part G). Gene Ontology (GO) termed these genes enriched for the signal pathway of osteoblastic differentiation and bone development (FIG. 1, Part G). Similarly, 519 genes with increased expression after SB21673 treatment were found (FIG. 1, Part H).
For RNA sequencing, osteoblasts were treated with 10 μM SB216763 for 14 days, and RNA was isolated for library preparation. The sequencing was conducted by the Pathology Research Services at UCLA. Spliced Transcripts Alignment to Reference (STAR) was used for the read alignment. Cufflinks was used to assemble transcripts, estimate their abundances, and assess the differential expression. GO analysis and pathway enrichment of the identified genes were performed.

[1] = system: SMAD1 or β-catenin DNA-binding; assay: ChIP-seq of SMAD1 and β-catenin DNA-binding in treated osteoblasts; assay type: cell-based, mouse
Protocol: A chromatin immunoprecipitation was performed with massively parallel DNA sequencing (ChIP-seq) to examine potential alterations of SMAD1 or β-catenin DNA-binding in SB216763-treated osteoblasts.
For ChIP-seq, specific antibodies were used to enrich the genomic DNA as described before. ChIP DNA were sequenced by the Pathology Research Services at UCLA. Reads from each sample were mapped to the mouse genome using Bowtie2. Homer tool was used to detect significant enrichment of peaks with 5% false discovery rate and >4-fold over input. Motif occurrences in peaks were identified by the Homer motif discovery function. Peak annotation was performed to associate peaks with nearby genes and calculate tag densities. GO analysis and pathway enrichment of the identified genes were also performed. Specific antibodies for SMAD1 (Cell Signaling Technology, 9743) and β-catenin (R&D System, MAB2006) were used. The data were deposited in Gene Expression Omnibus (GEO) database with access number (GSE147374).

[2] = system: vascular calcification in Mgp−/− mice; assay: Early vascular calcification in Mgp−/− mice; assay type: in vivo, mouse; conditions: Mgp−/− mice at 2 weeks of age, 5 ug/g daily for 2 weeks
Protocol: To examine whether SB216763 could be used for treatment of vascular calcification, the Mgp^−/− mouse was chosen, a well-known model of calcification. Mgp^−/− mice develop arterial calcification as early as postnatal day 14. At 4 weeks of age, the entire arterial vasculature is severely calcified. Two independent experiments were performed to test if SB216763 decreased calcification in Mgp^−/− mice. First, young Mgp^−/− mice at 2 weeks of age with SB216763 were treated (5 ug/g daily) for 2 weeks to determine if SB216763 prevented osteogenesis in the Mgp^−/− aortas (FIG. 5, Part A).
Mgp^+/− (B6.129S7-Mgptm1Kry/KbosJ), Col1α1^CreERT2 (B6.Cg-Tg(Col1α1-cre/ERT2)1Crm/J), GSK3β^flox/flox (B6.129(Cg)-Gsk3btm2Jrw/J) and Osx-Gfptg (B6.Cg-Tg(Sp7-tTA,tetO-EGFP/cre)1Amc/J) mice on C57BL/6J background were purchased from the Jackson Laboratory. Genotypes were confirmed by PCR, and experiments were performed with generation F4-F6. Littermates were used as wild type controls. All mice were fed a standard chow diet. The studies were reviewed and approved by the Institutional Review Board and conducted in accordance with the animal care guidelines set by the University of California, Los Angeles (UCLA). The investigation conformed to the National Research Council, Guide for the Care and Use of Laboratory Animals, Eighth Edition (Washington, D.C.: The National Academies Press, 2011).

[3] = system: Flk1-eGFP osteoblasts (mouse osteoblast line MC3T3); assay: High throughput screen for eGFP expression in Flk1-eGFP osteoblasts; assay type: cell-based; conditions: after 14 days of treatment
Source text: A high throughput screen was generated by modifying the mouse osteoblast line MC3T3. Fetal liver kinase 1 (Flk1) promoter-driven enhanced green fluorescent protein (eGFP) was introduced into these osteoblasts. […] Several libraries of small molecules, including a FDA-approved drug library, a UCLA in-house collection, and a custom set of compounds were screened. These libraries contained more than 22,000 small molecules ranging from natural products to synthesized compounds. […] It was further determined the specificity of endothelial differentiation by closely examining other vascular lineage markers including smooth muscle cells (SMCs), pericytes, and fibroblasts by using real-time PCR. […] Because GSK3 is important in glucose metabolism, the expression of genes related to glucose metabolism was determined in the SB216763-treated osteoblasts, such as casein kinase 2, glucose transporter 4, and insulin receptor substrates 1 and 2.
MC3T3 cells were stably infected with Flk1 promoter-driven eGFP by using Flk1-eGFP lentivirus (GeneCopoeia™). […] The plates were transferred and delivered by a Thermo Scientific™ Spinnaker™ Robot (ThermoFisher Scientific). eGFP expression was determined and imaged using a FlexStation II and Victor 3V (Perkin Elmer) every day for two weeks.

GFP+CD31+ aortic cells = assay: Bone formation assay in vivo with GFP+CD31+ aortic cells of treated mice; set-up: species or system mouse
Protocol: Then, mice were treated with or without SB216763 for 2 weeks. […] Then, the alteration of GFP and CD31 double positive cells (GFP+CD31+) were characterized after SB216763 treatment. […] Same numbers of cells of each group were used to perform a transplantation experiment to examine the capacity of bone formation by using bone formation assay in vivo.

[4] = 4-fold differential threshold level

## Cn1cc(C2=C(c3ccc(Cl)cc3Cl)C(=O)NC2=O)c2ccccc21 [SB216763]
osteoblasts; 10 μM for 14 days
  transcript profile: increased the similarities between the treated osteoblasts and ECs
osteoblasts; [4]
  cohort with decreased expression in both analyses (overlap with osteoblast vs EC low expression genes): 307 gene
  cohort with increased expression in both analyses (overlap with EC vs osteoblast high expression genes): 235 genes
  genes decreased in expression: 827 genes
  genes with increased expression: 519 genes
[1]; ChIP-seq
  genes with decreased DNA-binding of SMAD1 in the regulatory regions: 8214 genes
  genes with increased β-catenin DNA-binding in the regulatory regions: 1543 genes
[1]; overlap with 519 induced genes
  genes with an increase in expression and β-catenin DNA-binding: 84 genes
[1]; overlap with 827 suppressed genes
  genes with a decrease in both gene expression and SMAD1 DNA-binding: 649 genes
[2]
  CD31+ aortic cells co-expressing VE-cadherin and osterix, FACS: decreased number of cells that co-expressed VE-cadherin and osterix
  CD31+ aortic cells expressing only VE-cadherin, FACS: increased number of cells that only expressed VE-cadherin
  aortic mineralization, von Kossa staining: dramatic decrease in aortic mineralization
  immunoblotting of aortic tissues: decreased Cbfa1 and osterix, increased von Willebrand factor (vWF) and VE-cadherin and altered SMAD1 and β-catenin
  total aortic calcium: decrease in calcium deposition
[3]
  cell morphology: converted osteoblasts into EC-like morphology
  eGFP expression: strongly activated eGFP expression
GFP+CD31+ aortic cells; implants with GFP+CD31+ aortic cells of treated group
  osteocytes in implants, histology: lack of osteocytes
GFP+CD31+ aortic cells; implants with GFP+CD31+ aortic cells of treated group vs controls
  ectopic bone by Micro-CT: smaller size of ectopic bone, less trabecular formation and less bone volume
